Results taken from patent publication US12624003B2, “Carboxylic acid containing indanyl compounds for the treatment of neurodegenerative diseases” (Celgene Corporation, priority 2020, dated 2026).

Target: T1, S1P5 (Homo sapiens, UniProt Q9H228)
T1 construct: expressed in transfected cells; host or cells: CHO cells (membranes)
Test: [35S]-GTPγS functional binding assay on CHO-S1P5 membranes
Format: biochemical
Conditions: membranes of CHO cells expressing recombinant S1P5 receptors; measure of S1P5 agonism
Description: CHO cells expressing recombinant S1P5 receptors were cultured in 500 cm^2 culture trays and, once confluent, rinsed and detached with cell-lifting buffer (10 mM HEPES, 154 mM NaCl, 6.85 mM EDTA, pH 7.4). Cells were then pelleted by centrifugation, resuspended, and homogenized in membrane preparation buffer (10 mM HEPES and 10 mM EDTA, pH 7.4) using a Polytron PT 1200E homogenizer (Kinematica, Luzern, Switzerland). Cellular proteins were pelleted by centrifugation at 48,000×g at 4° C. for 30 minutes. The resulting supernatant was discarded, and the pellet was re-suspended again in membrane preparation buffer, homogenized for a second time, and then centrifuged again as described above. The final cellular protein pellet was suspended in ice cold resuspension buffer (10 mM HEPES and 0.1 mM EDTA, pH 7.4), divided into aliquots, and stored at −80° C. until use.
Functional binding assays for [^35S]-GTPγS were performed in 96-well non-binding surface plates with a final volume of 200 μL. The test compounds were serially diluted in DMSO and added to assay plates using a Tecan D300E digital printer with a total volume of 0.4 μL. The control sphingosine-1-phosphate (S1P) was prepared separately by preparing a 400 μM stock solution from a 100 nmol pellet of SIP in 10 mM Na2CO3 with 2% s-cyclodextrin. The serial dilution of S1P was done using complete assay buffer (20 mM HEPES, 10 mM MgCl2, 100 mM NaCl, 1 mM EDTA, 0.1% fatty acid free bovine serum albumin (BSA), and 30 μg/mL saponin, pH 7.4) and transferred to wells already containing 0.4 μL DMSO. All the wells were then loaded to a total volume of 40 μL of complete assay buffer, except the non-specific binding (NSB) wells. For NSB wells, 40 μL/well of 50 μM GTPγS (Sigma Aldrich, cat #G8634, St. Louis, MO) was added to wells containing 0.4 μL of DMSO. The assay was started by the addition of 120 μL/well of CHO-S1P receptor membrane solution containing 40 μg/mL of membrane protein, 16.67 μM guanosine diphosphate (GDP; Sigma Aldrich, cat #G7127, St. Louis, MO), and 2.5 mg/mL of WGA PVT SPA beads in complete buffer. Assay plates were then sealed and incubated at room temperature with gentle agitation for 30 minutes. Next, 40 μL/well of 1 nM of [^35S]-GTPγS (PerkinElmer, cat #NEG030X250UC, Waltham, MA) in basic assay buffer (20 mM HEPES, 10 mM MgCl2, 100 mM NaCl, and 1 mM EDTA, pH 7.4) was added to the assay plates to yield a final concentration of […] and the plates were further incubated for 40 minutes at room temperature with gentle agitation. The assay was terminated by centrifugation of the plates at 1000 rpm for 3 minutes using an Eppendorf 5810R centrifuge (Eppendorf, Hamburg, Germany) and G protein bound radioactivity was quantitated using a MicroBeta2 microplate scintillation counter (PerkinElmer, Waltham, MA). As G protein bound radioactivity directly correlates to receptor activation and coupling to the G protein, this assay is a measure of S1P5 agonism.

T1 sequence (Q9H228 whole entry, species assumed): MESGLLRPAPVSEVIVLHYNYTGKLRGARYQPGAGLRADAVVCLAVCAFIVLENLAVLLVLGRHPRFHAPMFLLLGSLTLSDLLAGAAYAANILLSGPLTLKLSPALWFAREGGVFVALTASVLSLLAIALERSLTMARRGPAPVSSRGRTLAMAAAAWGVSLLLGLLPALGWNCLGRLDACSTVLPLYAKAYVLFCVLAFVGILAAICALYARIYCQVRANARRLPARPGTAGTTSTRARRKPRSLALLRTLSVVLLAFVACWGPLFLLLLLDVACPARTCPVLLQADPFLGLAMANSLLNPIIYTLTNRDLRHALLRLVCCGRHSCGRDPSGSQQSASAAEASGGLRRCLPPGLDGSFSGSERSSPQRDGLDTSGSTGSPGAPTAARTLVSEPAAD

| Compound | EC50 |
| --- | --- |
| O=C(O)C1CCN(C2CCc3cc(CCc4c(F)cccc4F)ccc32)CC1 (single isomer, unassigned) [Compound 28b, 1-(5-(2,6-difluorophenethyl)-2,3-dihydro-1H-inden-1-yl)piperidine-4-carboxylic acid] | 10 to 100 nM |
| O=C(O)C1CN(C2CCc3cc(-c4ccc(C5CC5)c(Cl)c4)ccc32)C1 (single isomer, unassigned) [Compound 30a, 1-(5-(3-chloro-4-cyclopropylphenyl)-2,3-dihydro-1H-inden-1-yl)azetidine-3-carboxylic acid] | ≤ 10 nM |
| O=C(O)C1CN(C2CCc3cc(-c4ccc(C5CC5)c(Cl)c4)ccc32)C1 (single isomer, unassigned) [Compound 30b, 1-(5-(3-chloro-4-cyclopropylphenyl)-2,3-dihydro-1H-inden-1-yl)azetidine-3-carboxylic acid] | ≤ 10 nM |
| O=C(O)C1CN(C2CCc3cc(-c4ccc(C5CC5)c(F)c4)ccc32)C1 (single isomer, unassigned) [Compound 31a, 1-(5-(4-cyclopropyl-3-fluorophenyl)-2,3-dihydro-1H-inden-1-yl)azetidine-3-carboxylic acid] | ≤ 10 nM |
| O=C(O)C1CN(C2CCc3cc(-c4ccc(C5CC5)c(F)c4)ccc32)C1 (single isomer, unassigned) [Compound 31b, 1-(5-(4-cyclopropyl-3-fluorophenyl)-2,3-dihydro-1H-inden-1-yl)azetidine-3-carboxylic acid] | ≤ 10 nM |
| O=C(O)C1CCN(C2CCc3cc(-c4ccc(C5CC5)c(Cl)c4)ccc32)CC1 (single isomer, unassigned) [Compound 32a, 1-(5-(3-chloro-4-cyclopropylphenyl)-2,3-dihydro-1H-inden-1-yl)piperidine-4-carboxylic acid] | 100 to 1000 nM |
| O=C(O)C1CCN(C2CCc3cc(-c4ccc(C5CC5)c(Cl)c4)ccc32)CC1 (single isomer, unassigned) [Compound 32b, 1-(5-(3-chloro-4-cyclopropylphenyl)-2,3-dihydro-1H-inden-1-yl)piperidine-4-carboxylic acid] | ≤ 10 nM |
| O=C(O)[C@@H]1CCN(C2CCc3cc(-c4ccc(C5CC5)c(Cl)c4)ccc32)C1 (single isomer, unassigned) [Compound 34a] | ≤ 10 nM |
| O=C(O)[C@@H]1CCN(C2CCc3cc(-c4ccc(C5CC5)c(Cl)c4)ccc32)C1 (single isomer, unassigned) [Compound 34b] | ≤ 10 nM |
| O=C(O)[C@H]1CCN(C2CCc3cc(-c4ccc(C5CC5)c(Cl)c4)ccc32)C1 (single isomer, unassigned) [Compound 35a] | 10 to 100 nM |
| O=C(O)[C@H]1CCN(C2CCc3cc(-c4ccc(C5CC5)c(Cl)c4)ccc32)C1 (single isomer, unassigned) [Compound 35b] | 10 to 100 nM |
| O=C(O)[C@@H]1CCN(C2CCc3cc(-c4ccc(C5CC5)c(F)c4)ccc32)C1 (single isomer, unassigned) [Compound 36a] | ≤ 10 nM |
| O=C(O)[C@@H]1CCN(C2CCc3cc(-c4ccc(C5CC5)c(F)c4)ccc32)C1 (single isomer, unassigned) [Compound 36b] | ≤ 10 nM |
| O=C(O)[C@H]1CCN(C2CCc3cc(-c4ccc(C5CC5)c(F)c4)ccc32)C1 (single isomer, unassigned) [Compound 37a] | 100 to 1000 nM |
| O=C(O)[C@H]1CCN(C2CCc3cc(-c4ccc(C5CC5)c(F)c4)ccc32)C1 (single isomer, unassigned) [Compound 37b] | 10 to 100 nM |
| COc1cc(OC)cc(-c2ccc3c(c2)CCC3N2CCC(C(=O)O)CC2)c1 (single isomer, unassigned) [Compound 40, 1-(5-(3,5-dimethoxyphenyl)-2,3-dihydro-1H-inden-1-yl)piperidine-4-carboxylic acid] | 100 to 1000 nM |

| Compound | EC50 |
| --- | --- |
| O=C(O)C1CCN(C2CCc3cc(-c4ccc5c(c4)OCC5)ccc32)CC1 (single isomer, unassigned) [Compound 41, 1-(5-(2,3-dihydrobenzofuran-6-yl)-2,3-dihydro-1H-inden-1-yl)piperidine-4-carboxylic acid] | 100 to 1000 nM |
| O=C(O)C1CCN(C2CCc3cc(-c4ccc5ocnc5c4)ccc32)CC1 (single isomer, unassigned) [Compound 42, 1-(5-(benzo[d]oxazol-5-yl)-2,3-dihydro-1H-inden-1-yl)piperidine-4-carboxylic acid] | 1000 to 10000 nM |
| O=C(O)C1CCN(C2CCc3cc(-c4ccc5c(c4)CCO5)ccc32)CC1 (single isomer, unassigned) [Compound 43, 1-(5-(2,3-dihydrobenzofuran-5-yl)-2,3-dihydro-1H-inden-1-yl)piperidine-4-carboxylic acid] | 100 to 1000 nM |
| O=C(O)C1CCN(C2CCc3cc(-c4ccc5c(c4)CCC5)ccc32)CC1 (single isomer, unassigned) [Compound 44, 1-(2,2′,3,3′-tetrahydro-1H,1′H-[5,5′-biinden]-1-yl)piperidine-4-carboxylic acid] | 10 to 100 nM |
| O=C(O)C1CCN(C2CCc3cc(-c4cccc5c4CCC5)ccc32)CC1 (single isomer, unassigned) [Compound 45, 1-(2,2′,3,3′-tetrahydro-1H,1′H-[4,5′-biinden]-1′-yl)piperidine-4-carboxylic acid] | 100 to 1000 nM |
| O=C(O)C1CCN(C2CCc3cc(C#Cc4c(Cl)cccc4Cl)ccc32)CC1 (stereo not shown) [Compound 1, 1-(5-((2,6-dichlorophenyl)ethynyl)-2,3-dihydro-1H-inden-1-yl)piperidine-4-carboxylic acid] | ≤ 10 nM |
| O=C(O)C1=CCN(C2CCc3cc(C#Cc4c(Cl)cccc4Cl)ccc32)CC1 (stereo not shown) [Compound 2, 1-(5-((2,6-dichlorophenyl)ethynyl)-2,3-dihydro-1H-inden-1-yl)-1,2,3,6-tetrahydropyridine-4-carboxylic acid] | ≤ 10 nM |
| CC1(C)CN(C2CCc3cc(C#Cc4cccc(F)c4)ccc32)CCC1C(=O)O (stereo not shown) [Compound 5, 1-(5-((3-fluorophenyl)ethynyl)-2,3-dihydro-1H-inden-1-yl)-3,3-dimethylpiperidine-4-carboxylic acid] | 100 to 1000 nM |
| O=C(O)C1C2CCC1CN(C1CCc3cc(C#Cc4cccc(F)c4)ccc31)C2 [Compound 10, (1R,5S,8s)-3-(5-((3-fluorophenyl)ethynyl)-2,3-dihydro-1H-inden-1-yl)-3-azabicyclo[3.2.1]-octane-8-carboxylic acid] | 100 to 1000 nM |
| O=C(O)C1CCN(C2CCc3cc(C#Cc4ccccc4F)ccc32)CC12CC2 (stereo not shown) [Compound 11, 5-(5-((2-fluorophenyl)ethynyl)-2,3-dihydro-1H-inden-1-yl)-5-azaspiro[2.5]octane-8-carboxylic acid] | 10 to 100 nM |
| O=C(O)C1CCN(C2CCc3cc(C#Cc4cccc(F)c4)ccc32)CC12CC2 (stereo not shown) [Compound 12, 5-(5-((3-fluorophenyl)ethynyl)-2,3-dihydro-1H-inden-1-yl)-5-azaspiro[2.5]octane-8-carboxylic acid] | 10 to 100 nM |
| O=C(O)[C@]12C[C@H]1CN(C1CCc3cc(C#Cc4c(Cl)cccc4Cl)ccc31)C2 (stereo partly drawn) [Compound 15, (1R,5R)-3-(5-((2,6-dichlorophenyl)ethynyl)-2,3-dihydro-1H-inden-1-yl)-3-azabicyclo[3.1.0]-hexane-1-carboxylic acid] | ≤ 10 nM |
| O=C(O)[C@H]1[C@@H]2CN(C3CCc4cc(C#Cc5cccc(F)c5)ccc43)C[C@@H]21 (stereo partly drawn) [Compound 16, (1R,5S,6r)-3-(5-((3-fluorophenyl)ethynyl)-2,3-dihydro-1H-inden-1-yl)-3-azabicyclo[3.1.0]-hexane-6-carboxylic acid] | 100 to 1000 nM |
| O=C(O)[C@@H]1[C@@H]2CN(C3CCc4cc(C#Cc5cccc(F)c5)ccc43)C[C@@H]21 (stereo partly drawn) [Compound 17, (1R,5S,6s)-3-(5-((3-fluorophenyl)ethynyl)-2,3-dihydro-1H-inden-1-yl)-3-azabicyclo[3.1.0]-hexane-6-carboxylic acid] | 10 to 100 nM |
| O=C(O)C1CC2(C1)CN(C1CCc3cc(C#Cc4c(Cl)cccc4Cl)ccc31)C2 (stereo not shown) [Compound 21, 2-(5-((2,6-dichlorophenyl)ethynyl)-2,3-dihydro-1H-inden-1-yl)-2-azaspiro[3.3]heptane-6-carboxylic acid] | 10 to 100 nM |
